Results as given in patent US11510965B2, “Vesicles comprising epidermal growth factor and compositions thereof” (Centro de Ingeniería Genética y Biotecnología, priority 2012, dated 2022).

Experiments:
Aspergillus niger = experiment: Agar diffusion method, fungicidal activity; type: cell-based; conditions: 28° C., 72 hours; controls 100 μg/ml
Protocol: (§1) This activity was determined using the agar diffusion method (Manual of Clinical Microbiology. 6th ed. Washington, DC: ASM; 1995). The effectiveness of the different suspensions was assayed against Gram positive bacteria (Bacillus subtilis, Staphylococcus aureus), Gram negative bacteria (E. coli, Proteus mirabilis), and against fungi (Candida albicans, Aspergillus niger) using the technique of wells in nutrient agar plates. These microorganisms were identified and provided by the microorganism collection BCCM/LMG (Belgium). Bacteria were grown overnight at 37° C. in Tryptone Soy Broth (Oxoid), and fungi were incubated for 72 hours at 28° C. in Sabouraud Dextrose Broth (Oxoid). These suspensions were used as inocula. A final inoculum, using 100 μl of a suspension containing 10^8 colony forming units/ml of bacteria, or 10^4 spores/ml of fungus, was spread on Tryptone Soy Agar and Sabouraud Dextrose Agar (Oxoid) plates, respectively. The disk (6 mm in diameter) was impregnated with each of the different vesicle suspensions to be tested. […] Assay plates were incubated at 37° C. for 24 hours for bacteria, and 28° C. during 72 hours for fungi, depending on the incubation time required for visible growth.

Candida albicans = experiment: Agar diffusion method, fungicidal activity; type: cell-based; conditions: 28° C., 72 hours; controls 100 μg/ml
Protocol: as §1

[1] = cholesterol:CTAB vesicles, DELOS-SUSP; cited from earlier work

## OC(Cn1cncn1)(Cn1cncn1)c1ccc(F)cc1F [Fluconazole, fluconazole]
Aspergillus niger
  Fungicidal activity (Inhibition zone) A. niger: 21 mm
Candida albicans
  Fungicidal activity (Inhibition zone) C. albicans: 22 mm

## gentamicin
[1]
  gentamicin encapsulation: < 2%
